Reference: article PMC11484510, “Antibacterial activity of structurally diverse natural prenylated isobavachalcone derivatives” (RSC Advances, 2024)
Values after ≈ are worked out from the molar mass of the structure shown. “Also recorded” adds a separate entry of the source. Where two headings read alike, the source gives them in different places.

Columns and labels:
MRSA ATCC 15187 = test: MIC, broth microdilution (CLSI), Alamar blue; type: cell-based, Methicillin-resistant S. aureus; settings: read-out: Minimum inhibitory concentration (MIC) MRSA
Excerpt: (§1) The bacterial strains S. aureus ATCC 29213, MRSA ATCC 15187, E. coli ATCC 25922, and P. aeruginosa ATCC 27853 were obtained from ATCC (American Type Culture Collection). Cation-adjusted Mueller–Hinton broth (MHB; Becton–Dickinson, Cockeysville, MD) was used to determine the minimum inhibitory concentration (MIC). Mueller–Hinton agar (MHA; Becton–Dickinson) was used for minimum bactericidal concentration (MBC) studies. Alamar blue (Himedia) was used to detect the MIC value.
(§2) The antibacterial activity of the compounds against S. aureus ATCC 29213, MRSA ATCC 15187, E. coli ATCC 25922, and P. aeruginosa ATCC 27853 was determined through a broth microdilution method according to the guidelines of the Clinical and Laboratory Standards Institute (CLSI).[50] […] Growth control and media control were employed along with 2% DMSO as vehicle control.
(§3) In a 96-well flat bottom plate, the test compounds were two-fold serially diluted in Mueller Hinton Broth (MHB). The final concentrations of the compounds ranged from 100 to 0.08 μM. 100 μL of standardized bacterial inoculum with turbidity equivalent to 0.5 McFarland standard (1.5 × 10^8 CFU mL^−1) was diluted 1 : 100 (1.5 × 10^6 CFU mL^−1) in Mueller Hinton Broth and inoculated in the plates.[51] The plates were incubated for 24 hours at 37 °C. After incubation, 10 μL of freshly prepared Alamar blue (Himedia) was added to each well of the plate, and plates were further incubated at 37 °C for 30 minutes. After incubation, the fluorescence was measured at excitation/emission of 540–570/580–610 nm. The percentage inhibition and viability were calculated for the controls, and the Gompertz curve was utilized to estimate the minimum inhibitory concentration.

E. coli ATCC 25922 = test: MIC, broth microdilution (CLSI), Alamar blue; type: cell-based; settings: E. coli ATCC 25922, 24 hours at 37 °C, read-out: Minimum inhibitory concentration (MIC) E. coli
Excerpt: as §1, §2, §3

P. aeruginosa ATCC 27853 [1] = test: MIC, broth microdilution (CLSI), Alamar blue; type: cell-based; settings: P. aeruginosa ATCC 27853, 24 hours at 37 °C, read-out: Minimum inhibitory concentration (MIC) P. aeruginosa
Excerpt: as §1, §2, §3

S. aureus ATCC 29213 [2] = test: MIC, broth microdilution (CLSI), Alamar blue; type: cell-based; settings: S. aureus ATCC 29213, 24 hours at 37 °C, read-out: Minimum inhibitory concentration (MIC) S. aureus
Excerpt: as §1, §2, §3

P. aeruginosa ATCC 27853 [3] = test: MBC, plating on MHA; type: cell-based; settings: Pseudomonas aeruginosa, ATCC27853; more than 99.9% of the cells killed; read-out: Minimum bactericidal concentration (MBC) P. aeruginosa
Excerpt: as §1
(§4) MBC is defined as the lowest concentration of the compound at which more than 99.9% of the cells were killed compared with the growth control. The minimum compound concentration at which no visible bacterial growth was observed was taken as the Minimum Bactericidal Concentration (MBC).[50]

S. aureus ATCC 29213 [4] = test: MBC, plating on MHA; type: cell-based; settings: Staphylococcus aureus, ATCC29213; more than 99.9% of the cells killed; read-out: Minimum bactericidal concentration (MBC) S. aureus
Excerpt: as §1, §4

[5] = Cell viability assay (MTT); type: cell-based, murine; settings: mouse, RAW 264.7 macrophage cells; RAW 264.7 macrophage cell line, MTT assay
Method: (§5) RAW 264.7 cells were acquired from the American type culture collection (ATCC, Manassas, VA) and cultured in Dulbecco's modified eagle's medium (DMEM, Gibco, Life Technologies, NY) supplemented with 10% fetal bovine serum (FBS) at 37 °C and 5% CO2. MTT dye (Himedia) was used to detect CC50 values. The antibiotics ciprofloxacin hydrochloride monohydrate (Himedia), kanamycin sulfate (Himedia), and vancomycin (Himedia) were used for reference in microbiological assays.
(§6) The effect of compounds (IBC, IBC-2, and IBC-3) on the viability of cells was evaluated at different concentrations against macrophage cell lines through the 3-(4,5-dimethylthiazol2-yl)-2, 5-diphenyltetrazolium bromide (MTT) assay. The RAW 264.7 cells are monocyte/macrophage-like cells originating from an Abelson leukemia virus-transformed cell line derived from BALB/c mice. Due to their reliability and consistency, these cell lines are widely utilized for both in vitro and in vivo analyses.[52] The MTT assay is a colorimetric assay used to measure the viability and cytotoxicity of cells. The cells (2 × 10^4 cells per well) were grown at 37 °C with 5% CO2 for 48 hours, then exposed to compounds with different concentrations. […] After 20–21 hours, 20 μL of MTT dye at 2.5 mg mL^−1 concentration was added to each well and incubated for 4 hours. 100 μL DMSO solubilized the water-insoluble purple and white formazan produced.[53] The formation of the formazan salt by mitochondrial dehydrogenases was measured at 570.0 nm after incubating for 20 min. The percentage cytotoxicity was calculated with respect to the untreated cells, and the CC50 value was calculated. CC50 was defined as the concentration of an inhibitor that reduces cellular activities by 50% compared to untreated control cultures. The CC50 values were calculated as the concentration where the absorbance was reduced by 50% using GraphPad Prism software.[54] The selectivity index (SI) determines the safety profile of the compound. It is calculated as the ratio of compound concentration at which 50% of cell growth is inhibited compared to untreated cells (CC50) to the effective inhibiting concentration against bacterial strain (MIC). The high SI (>10 fold of MIC) of a drug is proven to have a favorable safety profile.[28] Selectivity index (SI) = CC50 of the compound (μM)/MIC of the compound (μM).

[6] = test system: RAW 264.7 macrophage cell line; test: Cell viability assay (MTT); type: cell-based, murine; settings: CC50 (RAW 264.7)/MIC with respect to S. aureus
Method: as §5, §6

S. aureus ATCC 29213 [7] = test: Time-kill assay; type: cell-based; settings: for Time-kill profile: MIC, 2× MIC, 4× MIC, 1 h to 24 h, 37 °C
S. aureus [8] = test: Combinational study (checkerboard microdilution) with standard drugs; type: cell-based; settings: for MIC: Staphylococcus aureus, read-out: MIC alone
Method: The Fractional Inhibitory Concentration Index (FICI) was calculated for each test compound and reference drug to find the combinational effect.
In a 96-well flat bottom plate, the reference drug with 4× MIC was serially diluted horizontally. The test compounds with 4× MIC were serially diluted two-fold outside the plate in 1.5 mL Eppendorf's using Mueller Hinton Broth (MHB). These two serially diluted compounds were combined to create drug-compound combinations in the plate. The reference drug (horizontally) and tested compounds (vertically) alone were serially diluted for MIC determination. 100 μL of the standardized bacterial inoculum with a turbidity equivalent to a 0.5 McFarland standard were diluted 1 : 100 in Mueller Hinton Broth and inoculated in the plates. The plates were incubated for 24 hours at 37 °C. After incubation, 10 μL of freshly prepared Alamar blue (Himedia) was added to each well of the plate, and the plates were further incubated at 37 °C for 30 minutes. After incubation, the plates were visually observed. […] The FICI was calculated using the formula FICI = FIC of compound + FIC of drug. The calculation followed is FICI (CA/(MICA)) + (CB/(MICB)), where CA is the MIC of the compound in combination, CB is the MIC of the drug in combination, and MICA and MICB are the MIC values of individual compounds and drugs, respectively. The range selection followed the interpretation criteria. The FICI range of 0.5 to 4 indicates indifference, ≤ or =0.5 indicates synergy and >4 indicates antagonism.[57]

S. aureus [9] = test: Cell integrity analysis by PI staining; type: cell-based; settings: drug control at 1× MIC, 30 minutes
Method: Propidium iodide (PI) indicates cell integrity, emitting a red fluorescence signal. PI's polar and hydrophilic nature impedes its entrance within active bacterial cells, but within perforated dead cells, it can easily bind to nucleic acid (DNA/RNA).[32,60]S. aureus bacterial cells were incubated overnight at 37 °C and diluted further 1 : 100 in Mueller Hinton Broth (MHB). The diluted culture was grown until its OD600 reached 0.5. […] Vancomycin was used as a drug control at 1× MIC, while untreated bacterial cells were used as growth control. The samples were centrifuged at 5000 rpm speed at 4 °C temperature for 10 minutes, and the pellet was washed two times using phosphate-buffered saline pH-7.4 (PBS). To stain the sample (dead cells), 3 μL PI of 20.0 mM concentration was added to the 1 mL solution (pellet resuspended in PBS) and incubated for 15 minutes. To remove the dye, the samples were centrifuged again and washed with PBS once. The final pellet was resuspended in 1 mL of PBS, and 30 μL of each undiluted sample was used to obtain fluorescence imaging. The cells were observed under fluorescence microscopy.[61]

[10] = MRSA ATCC 15187, 24 hours at 37 °C
[11] = Staphylococcus aureus, MRSA ATCC 15187, 24 hours at 37 °C
[12] = Pseudomonas aeruginosa, ATCC27853, 24 h
[13] = Staphylococcus aureus, ATCC29213
[14] = MIC of the compound in combination with ciprofloxacin, S. aureus
[15] = MIC of the compound in combination with vancomycin, S. aureus
[16] = checkerboard, S. aureus, substance alone
[17] = compound with ciprofloxacin, S. aureus
[18] = compound with vancomycin, S. aureus

CC(C)=CCc1c(O)ccc(C(=O)/C=C/c2ccc(O)cc2)c1O [IBC, (E)-1-(2,4-dihydroxy-3-(3-methylbut-2-en-1-yl)phenyl)-3-(4-hydroxyphenyl) prop-2-en-1-one]
MIC (MRSA ATCC 15187; [10]): >100 µM
MIC (MRSA ATCC 15187; [11]): > 100 µM
MIC (E. coli ATCC 25922): >100 µM
MIC (E. coli ATCC 25922; Escherichia coli, ATCC25922): > 100 µM
MIC (P. aeruginosa ATCC 27853 [1]; [12]): 24 µM (≈ 7.79 µg/mL)
MIC (S. aureus ATCC 29213 [2]): 5 µM (≈ 1.62 µg/mL)
MIC (S. aureus ATCC 29213 [2]; [13]): 5 µM (≈ 1.62 µg/mL)
MBC (P. aeruginosa ATCC 27853 [3]): 25 µM (≈ 8.11 µg/mL)
MBC (S. aureus ATCC 29213 [4]): 6.25 µM (≈ 2.03 µg/mL)
CC50 [5]: 94 µM
Selectivity index (SI) [6]: 19
Time-kill profile (S. aureus ATCC 29213 [7]): after 24 hours, an increase in CFU was observed; also recorded: concentration-dependent killing till 9 h
MIC combination (compound) (S. aureus [8]; [14]): 5 µM
MIC combination (compound) (S. aureus [8]; [15]): 2.5 µM
MIC (S. aureus [8]; [16]): 5 µM
Outcome of combination (S. aureus [8]; [17]): Indifference (The FICI range of 0.5 to 4 indicates indifference)
∑ FICI (S. aureus [8]; [17]): 1.25
Outcome of combination (S. aureus [8]; [18]): Indifference (The FICI range of 0.5 to 4 indicates indifference)
∑ FICI (S. aureus [8]; [18]): 0.99

CC1(C)CCc2c(ccc3c2OC(c2ccc(O)cc2)CC3=O)O1 (stereo not drawn) [IBC-2, 2-(4-hydroxyphenyl)-8,8-dimethyl-2,3,9,10-tetrahydro-4H,8H-pyrano[2,3-f]chromen-4-one]
MIC (MRSA ATCC 15187; [10]): >100 µM
MIC (MRSA ATCC 15187; [11]): > 100 µM
MIC (E. coli ATCC 25922): >100 µM
MIC (E. coli ATCC 25922; Escherichia coli, ATCC25922): > 100 µM
MIC (P. aeruginosa ATCC 27853 [1]): 22 µM (≈ 7.14 µg/mL)
MIC (P. aeruginosa ATCC 27853 [1]; [12]): 24 µM (≈ 7.79 µg/mL)
MIC (S. aureus ATCC 29213 [2]): 5 µM (≈ 1.62 µg/mL)
MIC (S. aureus ATCC 29213 [2]; [13]): 5 µM (≈ 1.62 µg/mL)
MBC (P. aeruginosa ATCC 27853 [3]): 50 µM (≈ 16.2 µg/mL)
MBC (S. aureus ATCC 29213 [4]): 12.5 µM (≈ 4.05 µg/mL)
CC50 [5]: 115 µM
CFU count of S. aureus ATCC 29213 in time-kill study (S. aureus ATCC 29213 [7]; 2× MIC and 4× MIC, with increasing time (up to 24 h)): below the detection limit
Time-kill profile (S. aureus ATCC 29213 [7]): concentration-dependent killing effect; also recorded: concentration and time-dependent killing effects
MIC combination (compound) (S. aureus [8]; [14]): 0.625 µM
MIC combination (compound) (S. aureus [8]; [15]): 5 µM
MIC (S. aureus [8]; [16]): 5 µM
Outcome of combination (S. aureus [8]; [17]): Indifference (The FICI range of 0.5 to 4 indicates indifference)
∑ FICI (S. aureus [8]; [17]): 0.625
Outcome of combination (S. aureus [8]; [18]): Indifference (The FICI range of 0.5 to 4 indicates indifference)
∑ FICI (S. aureus [8]; [18]): 2

CN[C@H](CC(C)C)C(=O)N[C@H]1C(=O)N[C@@H](CC(N)=O)C(=O)N[C@H]2C(=O)N[C@H]3C(=O)N[C@H](C(=O)N[C@H](C(=O)O)c4cc(O)cc(O)c4-c4cc3ccc4O)[C@H](O)c3ccc(c(Cl)c3)Oc3cc2cc(c3O[C@@H]2O[C@H](CO)[C@@H](O)[C@H](O)[C@H]2O[C@H]2C[C@](C)(N)[C@H](O)[C@H](C)O2)Oc2ccc(cc2Cl)[C@H]1O [Vancomycin, vancomycin, reference compound]
MIC (MRSA ATCC 15187; Staphylococcus aureus, 24 h): 0.7 µM (≈ 1.01 µg/mL)
MIC combination (drug) (S. aureus [8]; MIC of vancomycin in combination with IBC, S. aureus): 0.39 µM
MIC combination (drug) (S. aureus [8]; MIC of vancomycin in combination with IBC-2, S. aureus): 0.78 µM
MIC combination (drug) (S. aureus [8]; MIC of vancomycin in combination with IBC-3, S. aureus): 0.02 µM
MIC (S. aureus [8]): 0.78 µM
PI red fluorescence (cell integrity) (S. aureus [9]): higher number of dead cells emitting red fluorescence
